# Assay results published in ChEMBL document CHEMBL3871291, “Anthraquinones from Morinda longissima and their insulin mimetic activities via AMP-activated protein kinase (AMPK) activation” (Bioorg Med Chem Lett, 2017).
# Active and inactive are the calls of the source. The calls are words filed in the database; no cut-off is given here.
# How the values were obtained:
# [1] = organism: Mus musculus; assay: Activation of AMPK in mouse 3T3L1 adipocytes assessed as increase in 2-NBDG uptake at 10 uM after 90 mins by fluorescence assay; type: cell-based
# [2] = organism: Mus musculus; assay: Activation of AMPK in mouse 3T3L1 adipocytes assessed as increase in 2-NBDG uptake at 10 uM after 90 mins by fluorescence microscopy; type: cell-based
# [3] = system: C2C12; assay: Induction of AMPK alpha phosphorylation at Thr172 residue in mouse C2C12 cells at 10 uM after 2 hrs by Western blot analysis; type: cell-based
# [4] = Effect on total AMPK expression in mouse C2C12 cells at 10 uM after 2 hrs by Western blot analysis; type: ADME, cell-based; details: c2c12, 2 h
# [5] = organism: Mus musculus; assay: Cytotoxicity against mouse 3T3L1 adipocytes assessed as decrease in cell viability at 10 uM after 2 to 24 hrs by MTT assay; type: toxicity; details: 3t3-l1, 10 µM
# [6] = system: C2C12; assay: Activation of AMPK in mouse C2C12 cells assessed as increase in ACC phosphorylation at Ser79 residues at 10 uM after 2 hrs by Western blot analysis; type: cell-based
# [7] = organism: Mus musculus; assay: Cytotoxicity against mouse C2C12 cells assessed as decrease in cell viability at 10 uM after 2 to 24 hrs by MTT assay; type: toxicity, cell-based; details: c2c12, 10 µM
# [8] = system: C2C12; assay: Activation of AMPK in mouse C2C12 cells assessed as increase in ACC phosphorylation at Ser79 residues at 1 mM after 1 hr by Western blot analysis; type: cell-based
compound,measurement,setting,value
COc1c(C)c(O)cc2c1C(=O)c1ccccc1C2=O,Activity,[1],Active
Cc1ccc2c(c1)C(=O)c1ccccc1C2=O [TECTOQUINONE],Activity,[2],Active
same,Activity,[3],Active
same,Activity,[4],Non-Toxic
same,Activity,[1],Active
COc1c2c(cc3c1C(=O)c1ccccc1C3=O)OC(C)(C)OC2,Activity,[2],Active
same,Activity,[5],Non-Toxic
same,Activity,[6],Active
same,Activity,[3],Active
same,Activity,[4],Non-Toxic
same,Activity,[1],Active
same,Activity,[7],Non-Toxic
COc1c(O)c(O)cc2c1C(=O)c1ccccc1C2=O,Activity,[1],Active
COc1cc2c(c(O)c1COCCC(C)C)C(=O)c1ccccc1C2=O,Activity,[2],Active
same,Activity,[5],Non-Toxic
same,Activity,[6],Active
same,Activity,[3],Active
same,Activity,[4],Non-Toxic
same,Activity,[1],Active
same,Activity,[7],Non-Toxic
COCc1c(O)cc2c(c1OC)C(=O)c1ccccc1C2=O,Activity,[1],Active
COc1cc2c(cc1C)C(=O)c1ccccc1C2=O,Activity,[1],Active
COCc1c(OC)cc2c(c1OC)C(=O)c1ccccc1C2=O,Activity,[1],Active
NC(=O)c1ncn([C@@H]2O[C@H](CO)[C@@H](O)[C@H]2O)c1N,Activity,[8],Active
Cc1cc2c(cc1O)C(=O)c1ccccc1C2=O,Activity,[1],Active
CCCCOCc1c(O)cc2c(c1O)C(=O)c1ccccc1C2=O,Activity,[1],Active
